From patent publication US8318184B2, “MGLU2 agonists” (Eli Lilly and Company, priority 2009, dated 2012)

Columns and labels:
human mGlu2 receptor = molecular target: T1, human mGlu2 receptor (Homo sapiens, UniProt Q14416); assay: Human mGlu2 Agonist FLIPR Assay; type: cell-based; settings: hmGlu2 FLIPR assay, AV-12 cells, relative EC50
T1 construct: expressed in transfected cells; co-transfected with rat EAAT1 and Galpha15
Text: AV-12 cell lines, derived from Syrian Hamster fibroblasts and stably expressing the human mGlu2 receptor and co-transfected with the rat glutamate transporter EAAT 1 (Excitatory Amino Acid Transporter 1) and the Gα15 subunit, are used for these studies. The expression of Gα15 allows Gi-coupled receptors to signal through the phospholipase C pathway, resulting in the ability to measure receptor activation by a fluorometric calcium response assay. […]
Intracellular calcium levels are monitored before and after the addition of compounds using a Fluorometric Imaging Plate Reader (FLIPR, Molecular Devices). […] Results are analyzed using Prism v4.03 (GraphPad Software). […] After taking an initial 5-sec fluorescent read on the FLIPR instrument, a compound of the present invention is added to the cell plate (50 μL per well). […] The compound effect is measured as maximal minus minimal peak heights in relative fluorescent units (RFUs) corrected for basal fluorescence measured in the absence of glutamate. […] Agonist effects are quantified as percent stimulation induced by compound alone relative to the maximal glutamate response. All data are calculated as relative EC50 values using a four-parameter logistic curve fitting program (ActivityBase v5.3.1.22).

NIH-Swiss mice = assay: Forced Swim Test in mice; type: in vivo, mouse; settings: i.p.
Description: In this assay, mechanisms with purported antidepressant-like activity decrease immobility in a brief inescapable forced swim episode.
The forced-swim test is conducted with both mice (male, NIH-Swiss mice, 20-25 g, Harlan Sprague-Dawley, Indianapolis, Ind.) and rats (male, Sprague-Dawley rats, 250-350 g, Harlan Sprague-Dawley, Indianapolis, Ind.). Mice are placed in clear plastic cylinders (diameter 10 cm; height: 25 cm) filled to 6 cm with 22-25° C. water for six min. The duration of immobility is recorded during the last 4 min of a six-minute trial. Rats are treated similarly, albeit in clear plastic cylinders of larger dimensions (diameter: 18 cm; height: 40 cm) filled with water (22-25° C.) to a depth of 16 cm for 15 min. Additionally, mice receive a single forced swim exposure; rats receive two, 5-min sessions separated by 24 hours (data is recorded only on Day 2). […] Imipramine is used as a positive control for these studies. […] Compounds are in a clear solution. The amount of time spent immobile (defined as movements only necessary to keep the subject's head above water) is the dependent measure and recorded by an observer blinded to the drug treatment of the subjects. Data are analyzed by post-hoc Dunnett's test with alpha level set at 0.05. The mouse version of the forced swim test is most commonly used.

[1] = 1 h, 10 µM, pH 7.4
Description: Frozen human duodenum intestinal homogenates (1:2 tissue:buffer ratio using 100 mM Tris Phosphate buffer, pH 7.4) are obtained from Celsius In Vitro Technologies (Baltimore, Md.) that were both phenylmethylsulphonylfluoride (PMSF) and EDTA free.
Each lot of human duodenum is obtained from a single donor and the intestine is scraped and the sections are frozen separate. All original tissue collections are performed at 4° C. and immediately frozen at −70° C. Human intestinal homogenates are thawed and diluted to a final protein concentration of 0.5 mg/mL in 100 mM PBS buffer, pH 7.4 immediately prior to the incubations.
Incubations are conducted in 96-well plates and all prodrug compounds are run in duplicate on each day. Stock prodrug compound solutions are prepared in water at a concentration of 1 mM. A 200 μL aliquot of 0.5 mg/mL intestinal homogenate and 196 μL of 100 mM PBS buffer are placed in a 96-well plate in a 37° C. water bath. Using a 96-well pipettor, 4 μL of the 1 mM prodrug compound solution is transferred into the homogenate. Immediately after addition of the prodrug compound (time zero) and after 1 hour incubation, 50 μL samples of the incubation mixture are removed using an automated disposable simultaneous 96 well pipettor and added directly to 200 μL of methanol quench solution containing 100 ng/mL of Internal Standard. The samples are then centrifuged at 3500 rpm for 5 minutes at 10° C. The supernatant (200 μL) is transferred to a final 96 well PCR plate and sealed for analysis by LC/MS/MS.
Concentrations of hydrolyzed compounds of the present invention in the incubation mixtures are determined using LC/MS/MS detection on a Sciex API 4000 quadrapole mass spectrometer with Analyst version 1.4.2, TurboIonSpray, positive ionization, and Selected Reaction Monitoring (SRM). A Waters Atlantis® T3 (20×2.1 mm, 5 μM) HPLC column is used at ambient temperature with a flow rate of 1.0 mL/min and a mobile phase gradient from 0.1% mobile phase A to 99% mobile phase A. Mobile phase A is 1000:5 water:heptafluorobuteric acid and mobile phase B is 1:1 methanol:glacial acetic acid.
Concentrations of hydrolyzed compounds of the present invention in the intestinal incubation mixtures are determined from standard curves prepared by replicate two-fold dilution starting at 10 μM in 100 mM PBS pH 7.4 and subsequently quenched with methanol-internal standard solution identical to the samples. Averages and standard deviations are calculated using Microsoft® Office Excel® 2007. Amount of hydrolysis is determined as a molar percentage of compound formed relative to prodrug compound concentration added. […] Final values are then normalized relative to the formation of Internal Compound Drug A.

[2] = mean and standard error of the mean

T1 sequence (Q14416 19-872): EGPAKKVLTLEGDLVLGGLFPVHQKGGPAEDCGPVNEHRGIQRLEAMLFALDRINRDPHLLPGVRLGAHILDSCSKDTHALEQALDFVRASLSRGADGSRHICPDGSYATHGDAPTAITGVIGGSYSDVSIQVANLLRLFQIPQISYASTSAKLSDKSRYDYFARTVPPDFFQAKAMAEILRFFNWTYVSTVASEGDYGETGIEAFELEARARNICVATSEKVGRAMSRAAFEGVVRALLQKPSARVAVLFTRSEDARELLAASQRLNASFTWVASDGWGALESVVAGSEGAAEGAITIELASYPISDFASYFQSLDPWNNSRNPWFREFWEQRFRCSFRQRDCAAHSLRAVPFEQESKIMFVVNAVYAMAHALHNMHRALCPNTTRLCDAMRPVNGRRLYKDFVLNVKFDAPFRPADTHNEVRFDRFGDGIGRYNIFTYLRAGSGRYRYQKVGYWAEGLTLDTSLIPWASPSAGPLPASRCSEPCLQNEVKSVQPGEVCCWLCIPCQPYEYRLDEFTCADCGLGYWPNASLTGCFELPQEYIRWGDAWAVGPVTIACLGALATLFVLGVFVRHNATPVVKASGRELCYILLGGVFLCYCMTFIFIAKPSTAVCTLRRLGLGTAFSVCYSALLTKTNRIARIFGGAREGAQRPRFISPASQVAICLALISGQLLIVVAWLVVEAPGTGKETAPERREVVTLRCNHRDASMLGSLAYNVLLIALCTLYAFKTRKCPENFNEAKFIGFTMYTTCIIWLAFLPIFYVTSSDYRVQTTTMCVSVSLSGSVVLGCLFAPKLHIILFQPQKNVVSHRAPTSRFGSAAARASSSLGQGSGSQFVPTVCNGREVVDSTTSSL

Row | Compound | EC50 (human mGlu2 receptor) [nM] | ED60 (NIH-Swiss mice; 60 min prior to testing, single study) [mg/kg] | antidepressant-like effects (NIH-Swiss mice; F4,39=9.9, p<0.0001) | maximal effect, % of vehicle immobility levels (NIH-Swiss mice; at the 10 mg/kg dose, single study) [%] | ED60, mean of four separate replications (NIH-Swiss mice; [2]) [mg/kg] | maximal effect, % of vehicle-treated immobility levels, four separate replications (NIH-Swiss mice; [2]) [%] | human intestinal hydrolysis relative to Internal Prodrug Compound A [1] [%]
1 | N[C@@]1(C(=O)O)C[C@@H](Sc2nnc[nH]2)[C@H]2[C@H](C(=O)O)[C@H]21 [Example 1, (1R,2S,4R,5R,6R)-2-Amino-4-(4H-1,2,4-triazol-3-ylsulfanyl)bicyclo[3.1.0]hexane-2,6-dicarboxylic acid] | 23 | 10.5 | prominent antidepressant-like effects | 61 | 6.1 ± 2.5 | 49.5±11.5 | 
2 | C[C@H](N)C(=O)N[C@@]1(C(=O)O)C[C@@H](Sc2nnc[nH]2)[C@H]2[C@H](C(=O)O)[C@H]21.Cl [Example 2, (1R,2S,4R,5R,6R)-2-[[(2S)-2-Aminopropanoyl]amino]-4-(1H-1,2,4-triazol-3-ylsulfanyl)bicyclo[3.1.0]hexane-2,6-dicarboxylic acid hydrochloride] |  |  |  |  |  |  | 61
